Test results: patent US8535740B2, “Compositions from Nigella sativa” (priority 2002, dated 2013)
Marks after values point to notes of the source that are not given here.

Experiments:
[1] = tested on: LPS-stimulated macrophages; conditions: published results, El-Mahmoudy 2002; cited from earlier work
[2] = DPPH free radical scavenging (antioxidant) activity; format: biochemical; conditions: computed on basis of TQ content
Procedure: Methodology—Antioxidant activity was determined utilizing 2,2-diphenyl-1-picrylhydrazyl (DPPH), which is a stable radical. […] The color turns from purple to yellow as the molar absorption of the DPPH radical at 550 nm is reduced when the odd electron of DPPH radical becomes paired with hydrogen from a free radical scavenging antioxidant to form the reduced DPPH-H. The test samples were dissolved in methanol containing 1% dimethyl sulfoxide and added to microtiter wells in 100 μL aliquots to 100 μL of a 100 μM DPPH solution in methanol. Readings were taken at 10, 30 and 60 minutes following the addition of the test material. Percent inhibition of the DPPH radical by the test material was computed relative to the inhibition of the DPPH radical by the vitamin E analog trolox and tabulated as μmol trolox/g test material.

Caco-2 monolayers = experiment: t10-CLA-induced loss of transepithelial electrical resistance in Caco-2 monolayers; format: cell-based, human
Excerpt: Caco-2 Cells-The protocol for growing and differentiation the human Caco-2 colon andenocarcinoma cells was a modification of Protocol 3 as described by Yamashita et al. [[…]., and Furuyama, Y. (2002) New and better protocols for a short-term Caco-2 cell culture system, J Pharm Sci 91, 669-679]. Caco-2 Human Colon Adenocarcinoma cells were obtained from ATCC (Rockville, Md.; catalog #HTB-37) and maintained in a growth media: DMEM (Dulbecco's Modified Eagles Medium 1×) containing L-glutamine, glucose; Cellgro catalog #35-010CV with the following additions: (1) Penicillin (5,000 IU/mL)/Streptomycin (5,000 μg/mL) Cellgro catalog #30-001C1, (2) 10% FBS-Fetal Bovine Serum, Characterized; Hyclone catalog #SH30071.3, and (3) 1% NEAA-Non Essential Amino Acids; Cellgro catalog #25-025-CI; cells were cultured at 37 C in a humidified air-5% CO2 atmosphere in T175 flasks. Differentiation of Caco-2 cells to intestinal epithelial cells-BIOCOAT^R HTS Caco-2 Assay System kits (Becton Dickinson, N.J.; catalog #354801) consisting of 24-well fibrillar collagen coated inserts and feeder trays were used in all experiments and plated as follows. Media was removed from the T175 flasks and cells were washed with 10 mLs PBS (phosphate buffered saline 1× without Ca^++, without Mg^++; Cellgro #25-053-CI). PBS was removed and 5 mL of Trypsin/EDTA (1×, 0.25% Trypsin/2.21 mM EDTA in HBSS; Cellgro #25-053-CI) were added to the flask and the flask placed at 37 C until cells were visibly floating, approximately 3-5 minutes. Five mL of growth media were added to the flask to neutralize the trypsin. This solution was then transferred to a sterile 50 mL tube. Eight μL were sampled and placed in a hemocytometer for counting under a microscope. Five-hundred μL of cell solution were placed in the upper chamber of each insert so that the final density per well was at least 6.6×10^5 cells/cm^2. Thirty-five mL of growth media were then added to the feeder tray and plate incubated at 37 C with 5% CO2 and 100% humidity for 20-24 hours. […]

effect on loss of TEER in t10-CLA-stimulated Caco-2 cells (Caco-2 monolayers; concentrations of Table 7): inhibited loss of TEER
SMILES: CC1=CC(=O)C(C(C)C)=CC1=O [Thymoquinone (Sigma), thymoquinone]
IC50 for NO inhibition in LPS-stimulated macrophages [1]: 1.4 to 2.8 µg/mL | DPPH Reducing Activity [2]: 45.2 μmol Trolox/g TQ | Relative Loss of TEER (Caco-2 monolayers; 50 μM t10-CLA stimulus, positive control set to 100, each material at its tabulated concentration (TQ 5.0, NS8 0.11, NS9 0.99, NS10 0.012, NSSpent#2 0.0005 μg TQ equivalents/mL; Spent#1 5 μg/mL)): 44.5*
